Experimental data taken from patent US20250144067A1, “PERSONALIZED STARVATION THERAPY FOR CANCER” (Faeth Therapeutics, Inc., priority 2021, published 2025).
Structures can show the parent of a compound that is named as a salt. Where two headings read alike, the source gives them in different places.

Legend:
[1] = tested on: NCI-H292 lung cancer cells; experiment: FDA drug screening, complete media vs cholesterol-free media with simvastatin (TABLE 2); assay type: cell-based, human
[2] = tested on: NCI-H292 lung cancer cells; experiment: FDA drug screening, complete media vs cholesterol-free media without statin (TABLE 1); assay type: cell-based, human
[3] = NCI-H292 cells, cholesterol-free media with simvastatin 0.04 μM, cell growth value in FDA drug screen
[4] = NCI-H292 cells, complete media, cell growth value in FDA drug screen
[5] = complete media minus cholesterol-free media + simvastatin, >0 enhanced anti-cancer activity, about 0 neutral, <0 antagonist
[6] = Complete minus Cholesterol-free, >0 enhanced anti-cancer activity, about 0 neutral, <0 antagonist
[7] = NCI-H292 cells, cholesterol-free media without statin
[8] = NCI-H292 cells, drug in cholesterol-free media with simvastatin 0.04 μM
[9] = NCI-H292 cells, drug in complete media
[10] = complete media vs cholesterol-free media + simvastatin (0.04 μM), […]
[11] = NCI-H292 cells, cholesterol-free media without statin, FDA drug library screen
[12] = NCI-H292 cells, complete media, FDA drug library screen
[13] = NCI-H292 cells, FDA library drug in cholesterol-free media with simvastatin 0.04 μM
[14] = NCI-H292 cells, FDA library drug in complete media
[15] = complete media vs cholesterol-free media + simvastatin (0.04 μM), >0 enhanced anti-cancer activity, about 0 neutral, <0 antagonist
[16] = complete vs cholesterol-free media, >0 enhanced anti-cancer activity, about 0 neutral, <0 antagonist
[17] = NCI-H292 cells, FDA drug library screen, cholesterol-free media with simvastatin 0.04 μM
[18] = NCI-H292 cells, FDA drug library screen, complete media
[19] = Complete minus Cholesterol-free, greater than 0 enhanced anti-cancer activity, about 0 neutral, below 0 antagonist
[20] = NCI-H292 cells, FDA drug library screen, cholesterol-free media without statin
[21] = complete vs cholesterol-free media, […]
[22] = NCI-H292 cells, cholesterol-free media with simvastatin 0.04 μM, FDA drug library screen (TABLE 2)
[23] = NCI-H292 cells, complete media, FDA drug library screen (TABLE 2)
[24] = complete media minus cholesterol-free media + simvastatin (0.04 μM), >0 enhanced anti-cancer activity, about 0 neutral, <0 antagonist

## O=c1c(-c2ccc(O)cc2)coc2c([C@@H]3O[C@H](CO)[C@@H](O)[C@H](O)[C@H]3O)c(O)ccc12 [Puerarin]
[1]; [3]
  Cholesterol-free media + simvastatin (0.04 μM): 0.9456
[1]; [4]
  Complete Media: 1.081
[1]; [5]
  Difference: 0.14
[2]; [6]
  Difference: −0.27
[2]; [7]
  Cholesterol-free: 1.203
[2]; NCI-H292 cells, complete media
  Complete: 0.9306

## Cl.N[C@@H](CS)C(=O)O [L-Cysteine (hydrochloride)]
[1]; [8]
  Cholesterol-free media + simvastatin (0.04 μM): 1.122
[1]; [9]
  Complete Media: 0.9187
[1]; [10]
  Difference: −0.20
[2]; Complete minus Cholesterol-free, […]
  Difference: −0.04
[2]; [11]
  Cholesterol-free: 1.166
[2]; [12]
  Complete: 1.124

## COc1cc(C2Oc3cc([C@H]4Oc5cc(O)cc(O)c5C(=O)[C@@H]4O)ccc3OC2CO)ccc1O (stereo partly drawn) [Silibinin]
[1]; [13]
  Cholesterol-free media + simvastatin (0.04 μM): 2.112
[1]; [14]
  Complete Media: 1.696
[1]; [15]
  Difference: −0.42
[2]; [11]
  Cholesterol-free: 0.9386
[2]; [12]
  Complete: 1.219
[2]; [16]
  Difference: 0.28

## OC[C@@H](O)[C@@H](O)[C@H](O)[C@H](O)CO [D-Mannitol]
[1]; [17]
  Cholesterol-free media + simvastatin (0.04 μM): 1.033
[1]; [18]
  Complete Media: 1.748
[1]; [5]
  Difference: 0.71
[2]; [11]
  Cholesterol-free: 0.8621
[2]; [12]
  Complete: 1.662
[2]; [16]
  Difference: 0.80

## CS(=O)(=O)c1ccc(C2=C(c3ccccc3)C(=O)OC2)cc1 [Rofecoxib]
[1]; [17]
  Cholesterol-free media + simvastatin (0.04 μM): 1.252
[1]; [15]
  Difference: −0.11
[2]; [11]
  Cholesterol-free: 1.041
[2]; [16]
  Difference: 0.11

## CCOC(=O)OC(C)OC(=O)[C@@H]1N2C(=O)[C@@H](NC(=O)[C@H](N)c3ccccc3)[C@H]2SC1(C)C (stereo partly drawn) [Bacampicillin (hydrochloride)]
[1]; [17]
  Cholesterol-free media + simvastatin (0.04 μM): 1.049
[1]; [18]
  Complete Media: 0.956
[1]; [15]
  Difference: −0.09
[2]; [19]
  Difference: −0.18
[2]; [20]
  Cholesterol-free: 1.212
[2]; [18]
  Complete: 1.028

## C[C@@](Cc1ccc(O)c(O)c1)(NN)C(=O)O [Carbidopa]
[1]; [13]
  Cholesterol-free media + simvastatin (0.04 μM): 1.956
[1]; [14]
  Complete Media: 1.221
[1]; [15]
  Difference: −0.74
[2]; [19]
  Difference: −0.16
[2]; [20]
  Cholesterol-free: 1.15
[2]; [18]
  Complete: 0.9946

## CC(C)Cn1cnc2c(N)nc3ccccc3c21 [Imiquimod]
[1]
  Cholesterol-free media + simvastatin (0.04 μM): 1.141
  Complete Media: 0.8713
  Difference: −0.27
[2]
  Cholesterol-free: 0.6962
  Complete: 1.326
  Difference: 0.63

## Vonoprazan (Fumarate)
[1]; [14]
  Complete Media: 0.7838
[1]; [10]
  Difference: −0.27
[2]; [11]
  Cholesterol-free: 1.164
[2]; [12]
  Complete: 1.405
[2]; [21]
  Difference: 0.24

## CCOC(=O)c1ncn2c1CN(C)C(=O)c1cc(F)ccc1-2 [Flumazenil]
[1]; [13]
  Cholesterol-free media + simvastatin (0.04 μM): 1.268
[1]; [14]
  Complete Media: 0.8397
[1]; [15]
  Difference: −0.43
[2]; [6]
  Difference: 0.05
[2]; [11]
  Cholesterol-free: 1.073
[2]; [12]
  Complete: 1.128

## CCCCOc1cc(C(=O)OCCN(CC)CC)ccc1N [Oxybuprocaine hydrochloride]
[1]; [17]
  Cholesterol-free media + simvastatin (0.04 μM): 0.4662
[1]; [18]
  Complete Media: 1.022
[1]; [5]
  Difference: 0.56
[2]; [11]
  Cholesterol-free: 0.7998
[2]; [12]
  Complete: 0.9021
[2]; [16]
  Difference: 0.10

## CC#C[C@]1(O)CC[C@H]2[C@@H]3CCC4=CC(=O)CCC4=C3[C@@H](c3ccc(N(C)C)cc3)C[C@@]21C [Mifepristone]
[1]; [13]
  Cholesterol-free media + simvastatin (0.04 μM): 1.308
[1]; [14]
  Complete Media: 1.019
[1]; [15]
  Difference: −0.29
[2]; Complete minus Cholesterol-free, greater than 0 enhanced anti-cancer activity, about 0 neutral, below 0 antagonists
  Difference: −0.57
[2]; NCI-H292 cells in cholesterol-free media without statin
  Cholesterol-free: 1.574
[2]; NCI-H292 cells in complete media
  Complete: 0.9996

## CCC(=O)O[C@]1(C(=O)CCl)[C@@H](C)C[C@H]2[C@@H]3C[C@H](F)C4=CC(=O)C=C[C@]4(C)[C@@]3(F)[C@@H](O)C[C@@]21C [Halobetasol (propionate)]
[1]; [22]
  Cholesterol-free media + simvastatin (0.04 μM): 0.5775
[1]; [23]
  Complete Media: 0.585
[1]; [24]
  Difference: 0.01
[2]; [19]
  Difference: −0.18
[2]; [20]
  Cholesterol-free: 0.7462
[2]; [18]
  Complete: 0.5641

## CO[C@H]1C[C@@H]2CC[C@@H](C)[C@@](O)(O2)C(=O)C(=O)N2CCCC[C@H]2C(=O)O[C@H]([C@H](C)C[C@@H]2CC[C@@H](O)[C@H](OC)C2)CC(=O)[C@H](C)/C=C(\C)[C@@H](O)[C@@H](OC)C(=O)[C@H](C)C[C@H](C)/C=C/C=C/C=C/1C [Rapamycin]
[1]; [13]
  Cholesterol-free media + simvastatin (0.04 μM): 1.159
[1]; [14]
  Complete Media: 0.8704
[1]; [15]
  Difference: −0.29
[2]; [19]
  Difference: −0.13
[2]; [20]
  Cholesterol-free: 0.3515
[2]; [18]
  Complete: 0.2187

## Cc1[nH]c(/C=C2\C(=O)Nc3ccc(F)cc32)c(C)c1C(=O)NCCN1CCCC1 [Toceranib]
[1]; [3]
  Cholesterol-free media + simvastatin (0.04 μM): 0.9375
[1]; [4]
  Complete Media: 1.022
[1]; [5]
  Difference: 0.08
[2]; [11]
  Cholesterol-free: 0.7492
[2]; [12]
  Complete: 1.361
[2]; [16]
  Difference: 0.61

## C[C@H]1C[C@@H]2[C@H]([C@@H](O)C[C@@]3(C)[C@H]2CC[C@]3(O)C(=O)COC(=O)CCC(=O)O)[C@@]2(C)C=CC(=O)C=C12 [Methylprednisolone succinate]
[1]; [8]
  Cholesterol-free media + simvastatin (0.04 μM): 0.9151
[1]; [9]
  Complete Media: 0.7051
[1]; [15]
  Difference: −0.21
[2]; [7]
  Cholesterol-free: 0.8243
[2]; NCI-H292 cells, complete media
  Complete: 0.4661
[2]; complete vs cholesterol-free media, greater than 0 enhanced anti-cancer activity, about 0 neutral, below 0 antagonists
  Difference: −0.36

## C[N+](C)(C)CCCCCCCCCC[N+](C)(C)C.[Br-].[Br-] [Decamethonium (Bromide)]
[1]
  Cholesterol-free media + simvastatin (0.04 μM): 1.129
  Complete Media: 0.9457
  Difference: −0.18
[2]
  Cholesterol-free: 1.121
  Complete: 0.9062
  Difference: −0.21

## Cc1cccc([C@H](C)c2cnc[nH]2)c1C [Dexmedetomidine (hydrochloride)]
[1]; [22]
  Cholesterol-free media + simvastatin (0.04 μM): 1.227
[1]; [23]
  Complete Media: 1.157
[1]; [24]
  Difference: −0.07
[2]; [6]
  Difference: −0.05
[2]; [11]
  Cholesterol-free: 0.9551
[2]; [12]
  Complete: 0.9084

## CC(=O)N[C@@H](Cc1ccc(O)cc1)C(=O)O [N-Acetyl-L-tyrosine]
[1]; [17]
  Cholesterol-free media + simvastatin (0.04 μM): 1.348
[1]; [18]
  Complete Media: 1.218
[1]; [15]
  Difference: −0.13
[2]; [19]
  Difference: −0.16
[2]; [20]
  Cholesterol-free: 1.221
[2]; [18]
  Complete: 1.059

## Nc1nc(=O)c2c([nH]1)NC[C@@H](CNc1ccc(C(=O)N[C@@H](CCC(=O)O)C(=O)O)cc1)N2C=O [Folinic acid]
[1]; [13]
  Cholesterol-free media + simvastatin (0.04 μM): 1.232
[1]; [14]
  Complete Media: 0.9515
[1]; [15]
  Difference: −0.28
[2]; [19]
  Difference: −0.12
[2]; [20]
  Cholesterol-free: 1.105
[2]; [18]
  Complete: 0.9813

## Clc1ccc2c(N3CCN(CCCN4CCN(c5ccnc6cc(Cl)ccc56)CC4)CC3)ccnc2c1
[1]; [17]
  Cholesterol-free media + simvastatin (0.04 μM): 0.9008
[1]; [18]
  Complete Media: 1.047
[1]; complete media minus cholesterol-free media + simvastatin, […]
  Difference: 0.15
[2]; [7]
  Cholesterol-free: 1.226
[2]; NCI-H292 cells, complete media
  Complete: 0.8255
[2]; [21]
  Difference: −0.40

## O=c1[nH]c(=O)n([C@H]2C[C@H](O)[C@@H](CO)O2)cc1F [Floxuridine]
[1]; [22]
  Cholesterol-free media + simvastatin (0.04 μM): 0.09098
[1]; [23]
  Complete Media: 0.02907
[1]; [24]
  Difference: −0.06
[2]; [6]
  Difference: −0.01
[2]; [11]
  Cholesterol-free: 0.09159
[2]; [12]
  Complete: 0.08047
